The values that follow come from patent publication US12410160B2 (Gilead Sciences, Inc., priority 2021, dated 2025).

The target in one assay is human KHK-C (Homo sapiens (Human), UniProt P50053). As to the kind of experiment: KHK Biochemical Assay (IC50), ADP-Glo, KHK-C. The note with it: average of at least two separate assays. The method, boiled down:
(§1)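 His-tagged enzyme expressed in BL21 (DE3), Ni-NTA purified. Compounds, serially diluted 1:3 in DMSO, pre-incubated 30 min with enzyme in 50 mM Hepes pH 7.4, 140 mM KCl, 5 mM MgCl2, 0.01% Triton-X, then ATP and fructose added; 4 h at room temperature. ADP formation read by ADP-Glo luminescence.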

A further assay has as its target human KHK-A (Homo sapiens (Human), UniProt P50053). Kind of assay: KHK Biochemical Assay (IC50), ADP-Glo, KHK-A. The note with it: average of at least two separate assays. The method, boiled down:
as §1

Assay [1] deals with KHK-C expressed in NRK-52E cells (Homo sapiens (Human), UniProt P50053). Kind of assay: KHK-C Cell-based Assay (EC50), NRK CTG, fructose-mediated ATP-depletion.
Chain of KHK-C expressed in NRK-52E cells (P50053 whole entry): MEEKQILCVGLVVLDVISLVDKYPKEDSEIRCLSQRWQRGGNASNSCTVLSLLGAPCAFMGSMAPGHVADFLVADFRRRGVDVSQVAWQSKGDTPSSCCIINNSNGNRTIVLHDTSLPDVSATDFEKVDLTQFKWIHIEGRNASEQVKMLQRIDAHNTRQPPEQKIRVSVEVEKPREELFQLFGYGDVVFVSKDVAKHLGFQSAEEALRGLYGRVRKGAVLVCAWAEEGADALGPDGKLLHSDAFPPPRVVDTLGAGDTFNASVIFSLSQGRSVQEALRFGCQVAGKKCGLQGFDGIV

Chain of human KHK-A (P50053 other isoform, or with tags, fused parts or gaps): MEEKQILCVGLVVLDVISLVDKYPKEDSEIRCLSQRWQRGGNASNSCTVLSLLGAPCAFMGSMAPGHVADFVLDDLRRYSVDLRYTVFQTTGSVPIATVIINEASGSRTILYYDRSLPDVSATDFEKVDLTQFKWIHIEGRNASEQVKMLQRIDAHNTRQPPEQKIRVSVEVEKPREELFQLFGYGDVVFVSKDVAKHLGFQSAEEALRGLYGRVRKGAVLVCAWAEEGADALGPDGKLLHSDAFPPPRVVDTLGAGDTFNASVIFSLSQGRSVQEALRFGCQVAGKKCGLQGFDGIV
Chain of human KHK-C (P50053 whole entry): as the sequence (P50053 whole entry) above

In the case of `C[C@H]1[C@H](F)CN1c1nc2c(c(-c3ccc(CN)cc3)n1)CCC2` [Example 201, [4-[2-[(2S,3R)-3-fluoro-2-methyl-azetidin-1-yl]-6,7-dihydro-5H-cyclopenta[d]pyrimidin-4-yl]phenyl]methanamine], the half-inhibitory concentration (IC50) amounted to 1.7 nM against human KHK-C (ADP-Glo) and 2.9 nM at human KHK-A (ADP-Glo). This molecule also came in with an EC50 in assay [1] of 130 nM.

With `C[C@H]1CCN1c1nc2c(c(-c3ccc4c(c3)C(=O)NC4=O)n1)CCC2` [Example 240, 5-[2-[(2S)-2-methylazetidin-1-yl]-6,7-dihydro-5H-cyclopenta[d]pyrimidin-4-yl]isoindoline-1,3-dione], the IC50 against human KHK-C (ADP-Glo) worked out at 173 nM; against human KHK-A (ADP-Glo), 183 nM. Moreover, in assay [1], the EC50 came out at 4980 nM.

Regarding `C[C@H]1CCN1c1nc2c(c(-c3cccc(CNS(C)(=O)=O)c3)n1)CCC2` [Example 277, (S)—N-(3-(2-(2-methylazetidin-1-yl)-6,7-dihydro-5H-cyclopenta[d]pyrimidin-4-yl)benzyl)methanesulfonamide], the figures for the IC50 against human KHK-C (ADP-Glo) and at human KHK-A (ADP-Glo) were 15.3 nM and 11.9 nM, respectively. In assay [1], the response was half-maximal at 26.7 nM (EC50).

On to `COc1ccc(-c2nc(N3C[C@@H](O)[C@@H]3C)nc3c2CCC3(F)F)cc1S(C)(=O)=O` [Example 882, (2S,3R)-1-(7,7-difluoro-4-(4-methoxy-3-(methylsulfonyl)phenyl)-6,7-dihydro-5H-cyclopenta[d]pyrimidin-2-yl)-2-methylazetidin-3-ol], for which the IC50 came to 5.1 nM against human KHK-C (ADP-Glo) and 4.5 nM against human KHK-A (ADP-Glo). Besides, in assay [1], the EC50 was 34.6 nM.

On to `C[C@H]1CCN1c1nc2c(c(-c3ccc(C#N)c(Cl)c3)n1)CCC2` [Example 314, (S)-2-chloro-4-(2-(2-methylazetidin-1-yl)-6,7-dihydro-5H-cyclopenta[d]pyrimidin-4-yl)benzonitrile], for which the IC50 on human KHK-C (ADP-Glo) came out at 1940 nM; on human KHK-A (ADP-Glo), 2020 nM. In assay [1], this molecule had an EC50 of 4490 nM.

Turning to `C[C@H]1CCN1c1nc2c(c(-c3ccc(C4(O)COC4)cc3)n1)CCC2` [Example 127, (S)-3-(4-(2-(2-methylazetidin-1-yl)-6,7-dihydro-5H-cyclopenta[d]pyrimidin-4-yl)phenyl)oxetan-3-ol], the results for the IC50 against human KHK-C (ADP-Glo) and at human KHK-A (ADP-Glo) were 65.5 nM and 99.6 nM, respectively. It took 223 nM to reach a half-maximal effect in assay [1] (EC50).

In the case of `C[C@H]1CCN1c1nc2c(c(-c3cccc([C@@H]4C[C@H]4C(=O)O)c3)n1)CCC2` (single isomer, unassigned) [Example 90], the IC50 was determined as 11.2 nM on human KHK-C (ADP-Glo) and 8.9 nM against human KHK-A (ADP-Glo). In assay [1], the EC50 stood at 121 nM.

Turning to `C[C@H]1CCN1c1nc2c(c(-c3cc4c(C(N)=O)cccc4[nH]3)n1)CCC2` [Example 156, (S)-2-(2-(2-methylazetidin-1-yl)-6,7-dihydro-5H-cyclopenta[d]pyrimidin-4-yl)-1H-indole-4-carboxamide], the IC50 was determined as 82 nM against human KHK-C (ADP-Glo) and 99.9 nM against human KHK-A (ADP-Glo). This molecule displayed a concentration giving a half-maximal response (EC50) in assay [1] of 145 nM.

Consider `C[C@H]1CCN1c1nc2c(c(-c3cccc(CN4CCCC4)c3)n1)CCC2` [Example 348, 2-[(2S)-2-methylazetidin-1-yl]-4-[3-(pyrrolidin-1-ylmethyl)phenyl]-6,7-dihydro-5H-cyclopenta[d]pyrimidine], for which the IC50 against human KHK-C (ADP-Glo) came out at 22.7 nM; against human KHK-A (ADP-Glo) it was 24.2 nM. In assay [1], a half-maximal effect (EC50) was put at 35.1 nM.

Consider `NC(=O)c1ccc(-c2nc(N3CC[C@@H]3CO)nc3c2CCC3)cc1` [Example 95, (R)-4-(2-(2-(hydroxymethyl)azetidin-1-yl)-6,7-dihydro-5H-cyclopenta[d]pyrimidin-4-yl)benzamide], for which the IC50 was determined as 43.1 nM against human KHK-C (ADP-Glo) and 60.3 nM at human KHK-A (ADP-Glo). Also, the EC50 in assay [1] came to 221 nM.

Take `C[C@H]1CCN1c1nc2c(c(-c3ccc4c(c3)CC(C(=O)O)C4)n1)CCC2` (stereo partly drawn) [Example 139, 5-(2-((S)-2-methylazetidin-1-yl)-6,7-dihydro-5H-cyclopenta[d]pyrimidin-4-yl)-2,3-dihydro-1H-indene-2-carboxylic acid]: the IC50 was found to be 55.3 nM against human KHK-C (ADP-Glo) and 85.8 nM against human KHK-A (ADP-Glo). This molecule displayed an EC50 in assay [1] of 2490 nM.

Consider `C[C@H]1[C@H](O)CN1c1nc(-c2ccc3c(c2)CC[C@]32CCC(=O)N2)c2c(n1)C(F)(F)CC2` (single isomer, unassigned) [Example 638], for which the IC50 against human KHK-C came out at 0.3 nM; against human KHK-A it was 8.5 nM. The molecule also returned an EC50 in assay [1] of 6.1 nM.

As to `C[C@H]1[C@H](O)CN1c1nc(-c2ccc(OC3CC3)c([S@@](C)(=N)=O)c2)c2c(n1)C(F)(F)CC2` (single isomer, unassigned) [Example 542], the IC50 on human KHK-C came out at 0.6 nM; on human KHK-A it was 0.5 nM. Further, the EC50 in assay [1] stood at 5.7 nM.

In the case of `C[C@H]1CCN1c1nc2c(c(-c3ccc(CN4CCC4)cc3)n1)CCC2` [Example 366, 4-[4-(azetidin-1-ylmethyl)phenyl]-2-[(2S)-2-methylazetidin-1-yl]-6,7-dihydro-5H-cyclopenta[d]pyrimidine], the IC50 amounted to 86.5 nM on human KHK-C (ADP-Glo) and 54 nM against human KHK-A (ADP-Glo). This molecule also registered an EC50 in assay [1] of 75.4 nM.

As to `C[C@H]1CCN1c1nc(-c2ccc(C(N)=O)cc2)c2c(n1)C(F)(F)CC2` [Example 128, (S)-4-(7,7-difluoro-2-(2-methylazetidin-1-yl)-6,7-dihydro-5H-cyclopenta[d]pyrimidin-4-yl)benzamide], the IC50 at human KHK-C (ADP-Glo) and at human KHK-A (ADP-Glo) was 2.3 nM throughout. The molecule further came in with an EC50 in assay [1] of 6.3 nM.

As to `C[C@H]1CCN1c1nc2c(c(-c3cccc(CS(C)(=O)=O)c3)n1)CCC2` [Example 88, (S)-2-(2-methylazetidin-1-yl)-4-(3-((methylsulfonyl)methyl)phenyl)-6,7-dihydro-5H-cyclopenta[d]pyrimidine], the figures for the half-maximal inhibitory concentration (IC50) against human KHK-C (ADP-Glo) and at human KHK-A (ADP-Glo) were 62.8 nM and 75.3 nM, respectively. The same molecule yielded an EC50 in assay [1] of 214 nM.

As to `C[C@H]1CCN1c1nc2c(c(-c3cnc(C(C)(C)O)s3)n1)CCC2` [Example 213, 2-[5-[2-[(2S)-2-methylazetidin-1-yl]-6,7-dihydro-5H-cyclopenta[d]pyrimidin-4-yl]thiazol-2-yl]propan-2-ol], the IC50 at human KHK-C (ADP-Glo) was found to be 33.3 nM; against human KHK-A (ADP-Glo), 52.6 nM. The midpoint of the response in assay [1], the EC50, lay at 52.5 nM.

As for `C[C@H]1CCN1c1nc2c(c(-c3ccc4c(c3)C3(CCC4)CC3C(=O)O)n1)CCC2` (stereo partly drawn) [Example 148, 7′-(2-((S)-2-methylazetidin-1-yl)-6,7-dihydro-5H-cyclopenta[d]pyrimidin-4-yl)-3′,4′-dihydro-2′H-spiro[cyclopropane-1,1′-naphthalene]-2-carboxylic acid], the IC50 worked out at 59.9 nM against human KHK-C (ADP-Glo) and 84 nM against human KHK-A (ADP-Glo). Moreover, the EC50 in assay [1] is 653 nM.

As to `C[C@H]1CCN1c1nc2c(c(-c3ccc4ccc(=O)[nH]c4c3)n1)CCC2` [Example 132, (S)-7-(2-(2-methylazetidin-1-yl)-6,7-dihydro-5H-cyclopenta[d]pyrimidin-4-yl)quinolin-2(1H)-one], the half-maximal inhibitory concentration (IC50) at human KHK-C (ADP-Glo) stood at 71.8 nM; against human KHK-A (ADP-Glo), 97.6 nM. The EC50 in assay [1] is 131 nM.

As for `COc1cc(-c2nc(N3CC[C@@H]3C)nc3c2CCC3)ccc1C#N` [Example 310, (S)-2-methoxy-4-(2-(2-methylazetidin-1-yl)-6,7-dihydro-5H-cyclopenta[d]pyrimidin-4-yl)benzonitrile], the results for the IC50 against human KHK-C (ADP-Glo) and against human KHK-A (ADP-Glo) were 555 nM and 449 nM, respectively. For the same molecule, the EC50 in assay [1] amounted to 1810 nM.

In the case of `COc1ccc(-c2nc(N3C[C@@H](O)[C@@H]3C)nc3c2CCC3(F)F)cc1S(=N)(=O)C(F)F` (stereo partly drawn) [Example 832, (2S,3R)-1-[4-[3-(difluoromethylsulfonimidoyl)-4-methoxy-phenyl]-7,7-difluoro-5,6-dihydrocyclopenta[d]pyrimidin-2-yl]-2-methyl-azetidin-3-ol], the IC50 against human KHK-C (ADP-Glo) was found to be 5.7 nM; against human KHK-A (ADP-Glo), 2.5 nM. For the same molecule, the midpoint of the response in assay [1], the EC50, lay at 20.5 nM.

In the case of `C[C@H]1[C@H](C(N)=O)CN1c1nc2c(c(-c3ccc(C(N)=O)cc3)n1)CCC2` (relative stereo) [Example 266, (rac)-(2S*,3R*)-1-(4-(4-carbamoylphenyl)-6,7-dihydro-5H-cyclopenta[d]pyrimidin-2-yl)-2-methylazetidine-3-carboxamide], the IC50 on human KHK-C (ADP-Glo) and at human KHK-A (ADP-Glo) was > 5000 nM in each case. Besides, the EC50 in assay [1] is > 5000 nM.

With `COc1c(C)cc(-c2nc(N3C[C@@H](O)[C@@H]3C)nc3c2CCC3(F)F)cc1S(C)(=N)=O` (stereo partly drawn) [Example 722, (5-(7,7-difluoro-2-((2S,3R)-3-hydroxy-2-methylazetidin-1-yl)-6,7-dihydro-5H-cyclopenta[d]pyrimidin-4-yl)-2-methoxy-3-methylphenyl)(imino)(methyl)-λ^6-sulfanone], the values for the IC50 against human KHK-C and at human KHK-A were 5 nM and 8 nM, respectively. For the same molecule, in assay [1], the EC50 was determined as 25.7 nM.

For `C[C@H]1CCN1c1nc(-c2cccc(S(N)(=O)=O)c2)c2c(n1)C(F)(F)CC2` [Example 321, (S)-3-(7,7-difluoro-2-(2-methylazetidin-1-yl)-6,7-dihydro-5H-cyclopenta[d]pyrimidin-4-yl)benzenesulfonamide], the results for the IC50 on human KHK-C (ADP-Glo) and at human KHK-A (ADP-Glo) were 4.4 nM and 4.8 nM, respectively. This molecule registered an EC50 in assay [1] of 7.3 nM.

In the case of `C[C@H]1CCN1c1nc(-c2cccc(N=[S@](C)(N)=O)c2)c2c(n1)C(F)(F)CC2` (single isomer, unassigned) [Example 692], the 50% inhibitory concentration (IC50) at human KHK-C was 8.3 nM; on human KHK-A it was 6.9 nM. This molecule also came in with an EC50 in assay [1] of 44.9 nM.

As to `C[C@H]1CCN1c1nc2c(c(-c3ccc(C(N)=O)c4ccccc34)n1)CCC2` [Example 144, (S)-4-(2-(2-methylazetidin-1-yl)-6,7-dihydro-5H-cyclopenta[d]pyrimidin-4-yl)-1-naphthamide], the values for the IC50 on human KHK-C (ADP-Glo) and on human KHK-A (ADP-Glo) were 2400 nM and 1690 nM, respectively. Also, the EC50 in assay [1] is 2440 nM.
